Where two headings read alike, the source gives them in different places.
How the values were obtained:
[1] = biological target: human Gal-3 (hGal-3) (Homo sapiens (Human), UniProt P17931); assay: competitive binding assay: biotinylated hGal-3 binding to microplate-adsorbed asialofetuin (ASF)
In short: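 Peroxidase activity developed with ABTS measures the biotinylated hGal-3 remaining on the asialofetuin-coated surface after competition with test compounds. Incubation ran 3 h at 4 °C, followed by 1 h with streptavidin-peroxidase at 80 ng/mL.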

[2] = biological target: human Gal-1 (hGal-1) (Homo sapiens (Human), UniProt P09382); assay: competitive binding assay: biotinylated hGal-1 binding to microplate-adsorbed asialofetuin (ASF); conditions: Table 15; read-out: IC50 (Galectin-1 inhibition)
Sequence of human Gal-1 (hGal-1) (P09382 whole entry): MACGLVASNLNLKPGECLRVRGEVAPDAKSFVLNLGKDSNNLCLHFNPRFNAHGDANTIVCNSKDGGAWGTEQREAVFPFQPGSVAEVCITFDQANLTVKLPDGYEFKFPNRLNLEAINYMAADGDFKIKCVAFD
Method: Inhibition data of the epimers R and S of selected Examples are also listed.
Evaluation of Compound Inhibitory Activity (IC50)
The inhibitory activity of compounds is determined in competitive binding assays. This spectrophotometric assay measures the binding of biotinylated human Gal-3 (hGal-3) or human Gal-1 (hGal-1), respectively, to a microplate-adsorbed glycoprotein, asialofetuin (ASF) (Proc Natl Acad Sci USA. 2013 Mar. 26; 110(13):5052-7.).
Briefly, compounds are serially diluted in DMSO (working dilutions). ASF-coated 384 well plates are supplemented with 22.8 μL/well of biotinylated hGal-3 or hGal-1 in assay buffer (i.e. 300-1000 ng/mL biotinylated hGal-3 or hGal-1) to which 1.2 μL of compound working dilutions are added and mixed.
Plates are incubated for 3 hours at 4° C., then washed with cold assay buffer (3×50 uL), incubated for 1 hour with 25 μL/well of a streptavidin-peroxidase solution (diluted in assay buffer to 80 ng/mL) at 4° C., followed by further washing steps with assay buffer (3×50 uL). Finally, 25 μL/well of ABTS substrate is added.
The calculated IC50 values may fluctuate depending on the daily assay performance. Fluctuations of this kind are known to those skilled in the art. IC50 values from several measurements are given as mean values.

[3] = Gal-3 inhibition, binding of biotinylated hGal-3 to ASF, mean values, read-out: IC50
[4] = Table 10, 2-OMe-Gal inhibitors, read-out: IC50 (Gal-3 inhibition)
[5] = Table 5, read-out: IC50 (Gal-3 inhibition)

Sequence of human Gal-3 (hGal-3) (P17931 whole entry): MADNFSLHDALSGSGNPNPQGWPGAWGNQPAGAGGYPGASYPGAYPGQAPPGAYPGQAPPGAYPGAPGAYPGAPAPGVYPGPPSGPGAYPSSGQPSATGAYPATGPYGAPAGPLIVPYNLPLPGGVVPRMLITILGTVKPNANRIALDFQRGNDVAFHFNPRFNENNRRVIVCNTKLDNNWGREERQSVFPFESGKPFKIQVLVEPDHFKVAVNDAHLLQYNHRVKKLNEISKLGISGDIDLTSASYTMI

Compound | IC50 [1, 3] | IC50 [2] | IC50 [1, 4] | IC50 [1, 5]
CC(C)(O)[C@@H](S[C@@H]1O[C@H](CO)[C@H](O)[C@H](n2cc(-c3cc(F)c(F)c(F)c3)nn2)[C@H]1O)c1ccccc1Cl [Example 2.31.111S., (2S,3R,4S,5R,6R)-2-(((S)-1-(2-Chlorophenyl)-2-hydroxy-2-methylpropyl)thio)-6-(hydroxymethyl)-4-(4-(3,4,5-trifluorophenyl)-1H-1,2,3-triazol-1-yl)tetrahydro-2H-pyran-3,5-diol] | 4.3 µM | 30.9 µM |  | 
Cc1c(F)cccc1[C@H](S[C@@H]1O[C@H](CO)[C@H](O)[C@H](n2cc(-c3cc(F)c(F)c(F)c3)nn2)[C@H]1O)C(C)(C)O [Example 2.31.114S., (2S,3R,4S,5R,6R)-2-(((S)-1-(3-Fluoro-2-methylphenyl)-2-hydroxy-2-methylpropyl)thio)-6-(hydroxymethyl)-4-(4-(3,4,5-trifluorophenyl)-1H-1,2,3-triazol-1-yl)tetrahydro-2H-pyran-3,5-diol] | 5.4 µM | 40.9 µM |  | 
CCO[C@@H]1[C@@H](n2cc(-c3cc(F)c(F)c(F)c3)nn2)[C@@H](O)[C@@H](CO)O[C@H]1S[C@H](c1ncccc1C)C1(O)CCC(F)(F)CC1 [Example 2.44.126R.II., (2R,3R,4S,5R,6S)-6-(((R)-(4,4-Difluoro-1-hydroxycyclohexyl)(3-methylpyridin-2-yl)methyl)thio)-5-ethoxy-2-(hydroxymethyl)-4-(4-(3,4,5-trifluorophenyl)-1H-1,2,3-triazol-1-yl)tetrahydro-2H-pyran-3-ol] | 0.11 µM | 0.87 µM |  | 
CCn1ncc(Cl)c1C(S[C@@H]1O[C@H](CO)[C@H](O)[C@H](n2cc(-c3cc(F)c(F)c(F)c3)nn2)[C@H]1OC)C1(O)CCC(F)(F)CC1 (stereo partly drawn) [Example 2.44.139.I., (2R,3R,4S,5R,6S)-6-(((4-Chloro-1-ethyl-1H-pyrazol-5-yl)(4,4-difluoro-1-hydroxycyclohexyl)methyl)thio)-2-(hydroxymethyl)-5-methoxy-4-(4-(3,4,5-trifluorophenyl)-1H-1,2,3-triazol-1-yl)tetrahydro-2H-pyran-3-ol] |  | 3.9 µM | 0.62 µM | 
CC(C)c1ccccc1[C@H](S[C@@H]1O[C@H](CO)[C@H](O)[C@H](n2cc(-c3cc(F)c(F)c(F)c3)nn2)[C@H]1O)C1(O)CCC(F)(F)CC1 [Example 2.44.105S., (2S,3R,4S,5R,6R)-2-(((S)-(4,4-Difluoro-1-hydroxycyclohexyl)(2-isopropylphenyl)methyl)thio)-6-(hydroxymethyl)-4-(4-(3,4,5-trifluorophenyl)-1H-1,2,3-triazol-1-yl)tetrahydro-2H-pyran-3,5-diol] |  | 0.52 µM |  | 0.95 µM
OC[C@H]1O[C@@H](S[C@H](c2ccccc2C(F)(F)F)C2(O)CCC(F)(F)CC2)[C@H](O)[C@@H](n2cc(-c3cc(F)c(F)c(F)c3)nn2)[C@H]1O [Example 2.44.112R., (2S,3R,4S,5R,6R)-2-(((R)-(4,4-Difluoro-1-hydroxycyclohexyl)(2-(trifluoromethyl)phenyl)methyl)thio)-6-(hydroxymethyl)-4-(4-(3,4,5-trifluorophenyl)-1H-1,2,3-triazol-1-yl)tetrahydro-2H-pyran-3,5-diol] |  | 0.77 µM |  | 0.08 µM
CC(C)c1ccccc1C(S[C@@H]1O[C@H](CO)[C@H](O)[C@H](n2cc(-c3cc(F)c(F)c(F)c3)nn2)[C@H]1O)C(C)(C)O (stereo partly drawn) [Example 2.31.105., (2S,3R,4S,5R,6R)-2-((2-Hydroxy-1-(2-isopropylphenyl)-2-methylpropyl)thio)-6-(hydroxymethyl)-4-(4-(3,4,5-trifluorophenyl)-1H-1,2,3-triazol-1-yl)tetrahydro-2H-pyran-3,5-diol] | 0.18 µM | 0.3 µM |  | 
COCC(S[C@@H]1O[C@H](CO)[C@H](O)[C@H](n2cc(-c3cc(F)c(F)c(F)c3)nn2)[C@H]1O)c1ccccc1 (stereo partly drawn) [Example 2.30.100.OMe, (2R,3R,4S,5R,6S)-2-(Hydroxymethyl)-6-((2-methoxy-1-phenylethyl)thio)-4-(4-(3,4,5-trifluorophenyl)-1H-1,2,3-triazol-1-yl)tetrahydro-2H-pyran-3,5-diol, reference compound] | 2.9 µM | 56.3 µM |  | 
Cc1ccccc1C(S[C@@H]1O[C@H](CO)[C@H](O)[C@H](n2cc(-c3cc(F)c(F)c(F)c3)nn2)[C@H]1O)C1(O)CCCC1 (stereo partly drawn) [Example 2.38.102., (2S,3R,4S,5R,6R)-2-(((1-Hydroxycyclopentyl)(o-tolyl)methyl)thio)-6-(hydroxymethyl)-4-(4-(3,4,5-trifluorophenyl)-1H-1,2,3-triazol-1-yl)tetrahydro-2H-pyran-3,5-diol] |  | 2.9 µM |  | 0.18 µM
CO[C@@H]1[C@@H](n2cc(-c3cc(F)c(F)c(F)c3)nn2)[C@@H](O)[C@@H](CO)O[C@H]1S[C@H](c1ccccc1C(C)C)C1(O)CCC(F)(F)CC1 [Example 2.44.105R.I., (2R,3R,4S,5R,6S)-6-(((R)-(4,4-Difluoro-1-hydroxycyclohexyl)(2-isopropylphenyl)methyl)thio)-2-(hydroxymethyl)-5-methoxy-4-(4-(3,4,5-trifluorophenyl)-1H-1,2,3-triazol-1-yl)tetrahydro-2H-pyran-3-ol] |  | 0.15 µM | 0.32 µM | 
CS(=O)(=O)N1CCC(O)([C@H](S[C@@H]2O[C@H](CO)[C@H](O)[C@H](n3cc(-c4cc(F)c(F)c(F)c4)nn3)[C@H]2O)c2ccccc2C(F)(F)F)CC1 [Example 2.47.112R., (2S,3R,4S,5R,6R)-2-(((R)-(4-Hydroxy-1-(methylsulfonyl)piperidin-4-yl)(2-(trifluoromethyl)phenyl)methyl)thio)-6-(hydroxymethyl)-4-(4-(3,4,5-trifluorophenyl)-1H-1,2,3-triazol-1-yl)tetrahydro-2H-pyran-3,5-diol] | 0.03 µM | 0.12 µM |  | 
Cc1nc(C)c([C@H](S[C@@H]2O[C@H](CO)[C@H](O)[C@H](n3cc(-c4cc(F)c(F)c(F)c4)nn3)[C@H]2O)C2(O)CCCCC2)nc1C [Example 2.39.119S., (2S,3R,4S,5R,6R)-2-(((S)-(1-Hydroxycyclohexyl) (3,5,6-trimethylpyrazin-2-yl)methyl)thio)-6-(hydroxymethyl)-4-(4-(3,4,5-trifluorophenyl)-1H-1,2,3-triazol-1-yl)tetrahydro-2H-pyran-3,5-diol] |  | 18.9 µM |  | 3.96 µM
(2S,3R,4S,5R,6R)-2-(((3,3-Difluoro-1-hydroxycyclobutyl)(3-(trifluoromethyl)pyridin-2-yl)methyl)thio)-6-(hydroxymethyl)-4-(4-(3,4,5-trifluorophenyl)-1H-1,2,3-triazol-1-yl)tetrahydro-2H-pyran-3,5-diol [Example 2.35.125.] |  | 1.46 µM |  | 0.32 µM
Cc1c(F)cc(-c2cn([C@H]3[C@@H](O)[C@@H](CO)O[C@@H](S[C@H](c4ccccc4C(F)(F)F)C(C)(C)O)[C@@H]3O)nn2)cc1F [Example 3.31.112R., (2S,3R,4S,5R,6R)-4-(4-(3,5-Difluoro-4-methylphenyl)-1H-1,2,3-triazol-1-yl)-2-(((R)-2-hydroxy-2-methyl-1-(2-(trifluoromethyl)phenyl)propyl)thio)-6-(hydroxymethyl)tetrahydro-2H-pyran-3,5-diol] | 0.15 µM | 2.84 µM |  | 
Cc1ccccc1[C@H](S[C@@H]1O[C@H](CO)[C@H](O)[C@H](n2cc(-c3cc(F)c(F)c(F)c3)nn2)[C@H]1O)C(C)(C)O [Example 2.31.102S., (2S,3R,4S,5R,6R)-2-(((S)-2-Hydroxy-2-methyl-1-(o-tolyl)propyl)thio)-6-(hydroxymethyl)-4-(4-(3,4,5-trifluorophenyl)-1H-1,2,3-triazol-1-yl)tetrahydro-2H-pyran-3,5-diol] | 4.43 µM | 6.98 µM |  | 
Cc1conc1[C@H](S[C@@H]1O[C@H](CO)[C@H](O)[C@H](n2cc(-c3cc(F)c(F)c(F)c3)nn2)[C@H]1O)C1(O)CCS(=O)(=O)CC1 [Example 2.66.120S., 4-((S)-(((2S,3R,4S,5R,6R)-3,5-Dihydroxy-6-(hydroxymethyl)-4-(4-(3,4,5-trifluorophenyl)-1H-1,2,3-triazol-1-yl)tetrahydro-2H-pyran-2-yl)thio)(4-methylisoxazol-3-yl)methyl)-4-hydroxytetrahydro-2H-thiopyran 1,1-dioxide] | 4.57 µM | 24.1 µM |  | 
CS(=O)(=O)N1CCC(O)([C@@H](S[C@@H]2O[C@H](CO)[C@H](O)[C@H](n3cc(-c4cc(F)c(F)c(F)c4)nn3)[C@H]2O)c2ccccc2C(F)(F)F)CC1 [Example 2.47.112S., (2S,3R,4S,5R,6R)-2-(((S)-(4-Hydroxy-1-(methylsulfonyl)piperidin-4-yl)(2-(trifluoromethyl)phenyl)methyl)thio)-6-(hydroxymethyl)-4-(4-(3,4,5-trifluorophenyl)-1H-1,2,3-triazol-1-yl)tetrahydro-2H-pyran-3,5-diol] | 2.82 µM | 17.5 µM |  | 

Reference: patent US12404295B2, “(Hetero)aryl-methyl-thio-beta-D-galactopyranoside derivatives” (Idorsia Pharmaceuticals Ltd, priority 2019, dated 2025)
